The values that follow come from article PMC6178282, “Comparative cell biological study of in vitro antitumor and antimetastatic activity on melanoma cells of GnRH-III-containing conjugates modified with short-chain fatty acids” (Beilstein Journal of Organic Chemistry, 2018).

One data set deals with A2058 cells. The experiment in a line: Cellular uptake by flow cytometry (Dau fluorescence). Type of data set: cell-based, human. To be noted: 10^−5 M, 1, 4 and 6 h, FACSCalibur flow cytometry, mean of 2 parallels. The procedure:
For investigation and comparison of the cellular uptake of the conjugates, A2058 cells were treated with the conjugates at 10^−5 M concentration for 1, 4 and 6 h. The fluorescence intensity of intracellular Dau built in the conjugates and as the free drug was determined by flow cytometry (FACSCalibur; Becton Dickinson, San Jose, CA, USA).
Figure 2 Cellular uptake of Dau–GnRH-III conjugates and free daunorubicin (Dau) by A2058 cells. Cellular uptake of the compounds was studied in 10^−5 M concentration. GeoMean (geometric mean channel) value is a dimensionless value and refers to the relative fluorescence intensity. Data shown are mean of 2 parallels ± SD. […]
To study the cellular uptake of conjugates and Dau as the reference drug, A2058 cells (2 × 10^5 cells/well) were seeded on 12-well plates and cultured for 24 h. […] The measurements of internalized conjugates are based on the fluorescence activity of Dau. For detecting the intracellular fluorescence intensity of the cells, which is proportional with the cellular uptake, FACSCalibur flow cytometer (Becton Dickinson, San Jose, CA, USA) was used by collecting 10000 cells for each measurement. […] CellQuest Pro program (Becton-Dickinson, San Jose, CA, USA) was used for the measurement and the evaluation of relative fluorescence intensity (geometric mean channel – GeoMean values). […]
In general terms: A flow cytometer gives signals particle by particle.

The subject of another data set is A2058 melanoma cells. The experiment in a line: Cell cycle analysis, propidium iodide flow cytometry. In kind it is cell-based, human. Conditions: 10^−5 M, 24 h. On the procedure:
Since the conjugates had no or minor apoptotic effect, the cell cycle kinetics of the cells treated with GnRH-III-based conjugates was also investigated to reveal the mechanism of growth inhibition of these conjugates. The distribution of the control and treated cells in the different cell cycle phases was analyzed by measurements of relative DNA contents of individual cells by flow cytometry after propidium iodide (Sigma-Aldrich, St. Louis, MO, USA) staining. […] In parallel, a decrease in the proportions of cells in G1/G0 and G2/M phase and an increase in the percentage of S phase cells were also observed.
Figure 4 Effects of conjugates and daunorubicin (Dau) on cell cycle progression of A2058 melanoma cells. The model cell was incubated with the compounds at 10^−5 M concentration for 24 h. Results are expressed as a percentage of cells in the sub-G1 area and the major phases (G1/G0, S and G2/M) of the cell cycle. Data shown in the figure represent mathematical averages of two parallel measurements. […]
Jose, CA, USA) was used to measure the DNA content of cells with propidium iodide (Sigma-Aldrich, St. Louis, MO, USA) intercalated stoichiometrically to the double-stranded […]
A2058 cells were seeded, treated and harvested in the same way described in section ‘Apoptosis assay’; then, the cells were fixed in ice-cold 70% ethanol and kept at −20 °C for 24 h. The samples were centrifuged and resuspended in RNase (100 μg/ml, Sigma-Aldrich, St. Louis, MO, USA) containing citric acid/sodium phosphate buffer (pH = 7.8). Propidium iodide was added to the sample in 10 μg/ml concentration right before the flow cytometric measurements collecting at 25000 cells/sample.
Data were analyzed by CellQuest Pro and Flowing 2.5.1 (Turku Centre of Biotechnology, Turku, Finland) software. For aggregate/debris discrimination, FL2-Width vs FL2-Area plot […]
values to each population of cell cycle stages.
Measurement of cell adhesion […]
xCELLigence SP System ( ACEA Biosciences, San Diego, CA, USA).
The adhesion assay, analogous to the description in [5], was started with a background measurement as mentioned above in the section “Cell proliferation and cytotoxicity measurement”. In the next steps, the compounds were added in the concentration range of 10−8–10−5 M and the cells were loaded into the wells at a concentration of 10^4 cells/well. […]
NeuroProbe® MBB 96 chamber (NeuroProbe, Gaithersburg, MD, USA) by using polycarbonate filters with pore size 8 μm. To quantify the number of the chemotactically active cells, the alamarBlue-assay was applied as explained above. The ‘Chemotaxis index (Chtx. ind.) plotted in Figure 6 was calculated from the average of 8 parallel measurements and expressed as a percentage of control.

With `COc1cccc2c1C(=O)c1c(O)c3c(c(O)c1C2=O)C[C@@](O)(C(C)=O)C[C@@H]3O[C@H]1C[C@H](N)[C@H](O)[C@H](C)O1` [daunorubicin], the “Cellular uptake (GeoMean, relative intracellular fluorescence intensity normalized to control)” value in the data set on A2058 cells is given as “high level of intracellular fluorescence”. Moreover, the “percentage of S phase cells” value in the data set with A2058 melanoma cells (compared with control) is given as “increase”. In addition, the “percentage of cells in sub-G1 phase” value in the data set on A2058 melanoma cells (control 3.4%, average of two parallels) was 14.1%. Moreover, the “percentage of cells in G2/M phase” value in the data set on A2058 melanoma cells (control 34.3%, average of two parallels) is “decrease”. The “percentage of cells in G1/G0 phase” value with A2058 melanoma cells (control 47.6%, average of two parallels) is given as “decrease”.
